Source: patent publication US20250313563A1, “GLYCOGEN SYNTHASE KINASE 3 INHIBITORS AND USES THEREOF” (The Broad Institute, Inc., priority 2022, published 2025)
Read-outs that look alike come from different tables or passages of the source.

How the values were obtained:
[1] = molecular target: GSK3α (GST-full length GSK3α) (Homo sapiens (Human), UniProt P49840); assay: GSK3α TR-FRET kinase assay; type: biochemical
Method in brief: (§1)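 1 nM GST-GSK3α/β + cpd, 30 min preinc; add 200 nM biotin-pS645 GS(631-650) peptide + ATP (α 4 μM / β 2 μM, or 1 mM); 100 min RT, 50 mM Tris pH 7.5, 20 mM MgCl2, 1% DMSO; EDTA stop; SA-d2/Tb-pSer641 Ab 60 min; 665/615 ratio → IC50.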

[2] = molecular target: GSK3b (GST-full length GSK3b) (Homo sapiens (Human), UniProt P49841); assay: GSK3b TR-FRET kinase assay; type: biochemical
Chain of GSK3b (GST-full length GSK3b) (P49841 whole entry): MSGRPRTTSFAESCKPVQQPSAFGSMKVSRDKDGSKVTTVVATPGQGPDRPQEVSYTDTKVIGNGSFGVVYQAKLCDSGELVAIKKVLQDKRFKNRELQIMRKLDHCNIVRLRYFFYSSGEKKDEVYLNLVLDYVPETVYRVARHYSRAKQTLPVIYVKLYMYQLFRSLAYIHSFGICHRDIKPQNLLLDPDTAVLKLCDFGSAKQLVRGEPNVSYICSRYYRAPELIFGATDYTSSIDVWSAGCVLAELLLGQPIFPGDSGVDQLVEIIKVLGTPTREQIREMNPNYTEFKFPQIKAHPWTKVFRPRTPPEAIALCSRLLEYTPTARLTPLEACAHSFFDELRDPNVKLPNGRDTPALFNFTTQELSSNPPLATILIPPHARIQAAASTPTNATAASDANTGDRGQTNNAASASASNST
Method in brief: as §1

[3] = 1 nM GSK3α, 4 μM ATP, 30 minute preincubation, Table 16, read-out: GSK3-A TR-FRET BIOCHEMICAL (TR-FRET), IC50
[4] = 1 nM GSK3b, 2 μM ATP, 30 minute preincubation, Table 16, read-out: GSK3-B TR-FRET BIOCHEMICAL (TR-FRET), IC50
[5] = 1 nM GSK3α, 4 μM ATP, 30 minute preincubation, Table 16, read-out: GSK3-A TR-FRET BIOCHEMICAL (TR-FRET)
[6] = 1 nM GSK3b, 2 μM ATP, 30 minute preincubation, Table 16, read-out: GSK3-B TR-FRET BIOCHEMICAL (TR-FRET)
[7] = read-out: GSK3-A (TR-FRET 1 mM ATP), GMean, IC50, 1 mM ATP, geometric mean
[8] = read-out: GSK3-B (TR-FRET 1 mM ATP), GMean, IC50, 1 mM ATP, geometric mean
[9] = 1 nM GSK3α, 4 μM ATP, 30 minute preincubation, read-out: GSK3-A TR-FRET BIOCHEMICAL (TR-FRET), IC50
[10] = 1 nM GSK3b, 2 μM ATP, 30 minute preincubation, read-out: GSK3-B TR-FRET BIOCHEMICAL (TR-FRET), IC50
[11] = GSK3-A (TR-FRET 1 mM ATP), GMean, IC50, 1 mM ATP, geometric mean
[12] = GSK3-B (TR-FRET 1 mM ATP), GMean, IC50, 1 mM ATP, geometric mean

Chain of GSK3α (GST-full length GSK3α) (P49840 whole entry): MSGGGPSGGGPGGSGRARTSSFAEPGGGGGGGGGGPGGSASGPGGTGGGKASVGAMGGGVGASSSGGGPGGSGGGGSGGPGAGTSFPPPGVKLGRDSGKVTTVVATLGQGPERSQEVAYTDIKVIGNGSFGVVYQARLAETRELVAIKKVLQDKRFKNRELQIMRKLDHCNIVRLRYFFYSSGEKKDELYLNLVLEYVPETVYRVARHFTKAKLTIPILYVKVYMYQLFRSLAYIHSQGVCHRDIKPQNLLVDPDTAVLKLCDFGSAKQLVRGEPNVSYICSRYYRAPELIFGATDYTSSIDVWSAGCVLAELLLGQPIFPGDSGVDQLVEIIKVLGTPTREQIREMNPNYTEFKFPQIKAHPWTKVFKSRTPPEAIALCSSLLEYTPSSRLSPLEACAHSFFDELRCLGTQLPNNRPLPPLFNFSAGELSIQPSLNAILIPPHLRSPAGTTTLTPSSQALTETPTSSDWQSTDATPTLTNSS

SMILES	IC50 [1, 3]	IC50 [2, 4]	IC50 [1, 5]	IC50 [2, 6]	also measured
CCC1(c2cccc(-c3ccnc4ccccc34)c2)C2=C(CC(C)(C)CC2=O)Nc2n[nH]cc21 (stereo not shown) [Compound 932631]	≤ 100 nM	≤ 100 nM			
CC1(C)CC(=O)C2=C(C1)Nc1n[nH]cc1C21CCCN(S(=O)(=O)Cc2ccccc2)CC1 (stereo not shown) [Compound 932632]			≤ 100 nM	100 to 1000 nM	
CC1(C)CC(=O)C2=C(C1)Nc1n[nH]cc1C21CCCN(c2ccncc2)CC1 (stereo not shown) [Compound 932633]	> 5000 nM	> 5000 nM			
CCC1(c2cccc(N(C)c3ccc(C(F)(F)F)nc3)c2)C2=C(CC(C)(C)CC2=O)Nc2n[nH]cc21 (stereo not shown) [Compound 932634]	≤ 100 nM	100 to 1000 nM			
CCC1(c2cccc(-c3ccnc(C)c3)c2)C2=C(CC(C)CC2=O)Nc2n[nH]cc21 (stereo not shown) [Compound 932637]	> 5000 nM	> 5000 nM			
CCC1(c2cccc(-c3ccnc(C)c3)c2)C2=C(CC(C)CC2=O)Nc2n[nH]cc21 (stereo not shown) [Compound 932638]	> 5000 nM	> 5000 nM			
CC1(C)CC(=O)C2=C(C1)Nc1n[nH]cc1[C@@]21CCCN(S(=O)(=O)C2CC2)CC1 [Compound 932639]			≤ 100 nM	100 to 1000 nM	
CCC1(c2cccc(N(C)c3ccnc(OC)c3)c2)C2=C(CC(C)(C)CC2=O)Nc2n[nH]cc21 (stereo not shown) [Compound 932642]	≤ 100 nM	100 to 1000 nM			
CCC1(c2cccc(N3CCOc4ncccc43)c2)C2=C(CC(C)(C)CC2=O)Nc2n[nH]cc21 (stereo not shown) [Compound 932643]	100 to 1000 nM	1000 to 5000 nM			
CCC1(c2cccc(N(C)c3ccnc(C)c3)c2)C2=C(CC(C)(C)CC2=O)Nc2n[nH]cc21 (stereo not shown) [Compound 932645]	100 to 1000 nM	1000 to 5000 nM			
Cn1nccc1S(=O)(=O)N1CC2(C1)C1=C(CC(C)(C)CC1=O)Nc1n[nH]cc12 [Compound 932648]			≤ 100 nM	≤ 100 nM	
Cn1nccc1S(=O)(=O)N1CCC2(CC1)C1=C(CC(C)(C)CC1=O)Nc1n[nH]cc12 [Compound 932649]			≤ 100 nM	≤ 100 nM	
CC(C)N1CC2(C1)C1=C(CC(C)(C)CC1=O)Nc1n[nH]cc12 [Compound 932650]	> 5000 nM	> 5000 nM			
CC1(C)CC(=O)C2=C(C1)Nc1n[nH]cc1C21CN(C2CCOCC2)C1 [Compound 932651]	> 5000 nM	> 5000 nM			
Cn1ccc(CN2CC3(C2)C2=C(CC(C)(C)CC2=O)Nc2n[nH]cc23)n1 [Compound 932652]	> 5000 nM	> 5000 nM			
Cn1nccc1CN1CC2(C1)C1=C(CC(C)(C)CC1=O)Nc1n[nH]cc12 [Compound 932653]	1000 to 5000 nM	> 5000 nM			
CC1(C)CC(=O)C2=C(C1)Nc1n[nH]cc1C21CN(Cc2cnc3ccccn23)C1 [Compound 932654]	> 5000 nM	> 5000 nM			
CC1(C)CC(=O)C2=C(C1)Nc1n[nH]cc1[C@]21CCCN(S(=O)(=O)C2CC2)CC1 [Compound 932659]			≤ 100 nM	100 to 1000 nM	
Cn1ccc(S(=O)(=O)N2CCC[C@]3(CC2)C2=C(CC(C)(C)CC2=O)Nc2n[nH]cc23)n1 [Compound 932660]			≤ 100 nM	100 to 1000 nM	
CCC1(c2cccc(N3CCOc4ncccc43)c2)C2=C(CC(C)(C)CC2=O)Nc2n[nH]cc21 (stereo not shown) [Compound 932663]			≤ 100 nM	≤ 100 nM	
CC[C@]1(c2cccc(N(C)c3cccc(OC)n3)c2)C2=C(CC(C)(C)CC2=O)Nc2n[nH]cc21 [Compound 932666]			≤ 100 nM	100 to 1000 nM	

SMILES	IC50 [1, 3]	IC50 [2, 4]	IC50 [1, 5]	IC50 [2, 6]	also measured
COC(=O)C1(c2ccccc2)CC2(C1)C1=C(CC(C)(C)CC1=O)Nc1n[nH]cc12 (stereo not shown) [Compound 942344]			≤ 100 nM	100 to 1000 nM	
COC(=O)C1(c2ccccc2)CC2(C1)C1=C(CC(C)(C)CC1=O)Nc1n[nH]cc12 (stereo not shown) [Compound 942366]			≤ 100 nM	≤ 100 nM	
CC1(C)CC(=O)C2=C(C1)Nc1n[nH]cc1[C@]21CCN(S(C)(=O)=O)C1 [Compound 942432]			≤ 100 nM	≤ 100 nM	
CC1(C)CC(=O)C2=C(C1)Nc1n[nH]cc1[C@@]21CCN(S(C)(=O)=O)C1 [Compound 942462]			≤ 100 nM	≤ 100 nM	
CCC1(c2cccc(N(C)c3nccc(C)n3)c2)C2=C(CC(C)(C)CC2=O)Nc2n[nH]cc21 (stereo not shown) [Compound 942642]			≤ 100 nM	≤ 100 nM	IC50 [1, 7]: ≤ 100 nM; IC50 [2, 8]: 1000 to 5000 nM
CCC1(c2cccc(-c3cc(C)nn3C)c2)C2=C(CC(C)(C)NC2=O)Nc2[nH]ncc21 (stereo not shown) [Compound 943371]					IC50 [1, 9]: ≤ 100 nM; IC50 [2, 10]: 1000 to 5000 nM
CC1(C)CC(=O)C2=C(C1)Nc1n[nH]cc1[C@]21CCN(S(=O)(=O)CC2CC2)C1 [Compound 943481]			≤ 100 nM	≤ 100 nM	IC50 [1, 11]: 100 to 1000 nM; IC50 [2, 8]: 100 to 1000 nM
CC1(C)CC(=O)C2=C(C1)Nc1n[nH]cc1[C@]21CCN(S(=O)(=O)C2CCCC2)C1 [Compound 943482]			≤ 100 nM	≤ 100 nM	IC50 [1, 11]: 100 to 1000 nM; IC50 [2, 12]: 100 to 1000 nM
Cn1cc(S(=O)(=O)N2CC[C@]3(C2)C2=C(CC(C)(C)CC2=O)Nc2n[nH]cc23)cn1 [Compound 943483]			≤ 100 nM	≤ 100 nM	
Cn1ccc(S(=O)(=O)N2CC[C@]3(C2)C2=C(CC(C)(C)CC2=O)Nc2n[nH]cc23)n1 [Compound 943484]			≤ 100 nM	≤ 100 nM	IC50 [1, 11]: 100 to 1000 nM; IC50 [2, 12]: 1000 to 5000 nM
CC1(C)CC(=O)C2=C(C1)Nc1n[nH]cc1[C@]21CCN(S(=O)(=O)c2ccccc2)C1 [Compound 943485]			≤ 100 nM	≤ 100 nM	IC50 [1, 11]: 100 to 1000 nM; IC50 [2, 12]: 1000 to 5000 nM
COc1cccc(S(=O)(=O)N2CC[C@]3(C2)C2=C(CC(C)(C)CC2=O)Nc2n[nH]cc23)c1 [Compound 943486]			≤ 100 nM	≤ 100 nM	
CC1(C)CC(=O)C2=C(C1)Nc1n[nH]cc1[C@]21CCN(S(=O)(=O)c2ccccc2F)C1 [Compound 943487]					IC50 [1, 9]: ≤ 100 nM; IC50 [1, 11]: ≤ 100 nM; IC50 [2, 10]: ≤ 100 nM; IC50 [2, 12]: 100 to 1000 nM
CC1(C)CC(=O)C2=C(C1)Nc1n[nH]cc1[C@]21CCN(S(=O)(=O)c2cccc(F)c2)C1 [Compound 943488]			≤ 100 nM	≤ 100 nM	
Cc1cccc(S(=O)(=O)N2CC[C@]3(C2)C2=C(CC(C)(C)CC2=O)Nc2n[nH]cc23)c1 [Compound 943489]			≤ 100 nM	≤ 100 nM	
CCC1(c2cccc(N(C)c3ccnnc3)c2)C2=C(CC(C)(C)CC2=O)Nc2n[nH]cc21 (stereo not shown) [Compound 943492]			≤ 100 nM	≤ 100 nM	
CCC1(c2cccc(-c3cnnc(C)c3)c2)C2=C(CC(C)(C)NC2=O)Nc2n[nH]cc21 (stereo not shown) [Compound 943496]					IC50 [1, 9]: ≤ 100 nM; IC50 [2, 10]: 1000 to 5000 nM
CC[C@]1(c2cccc(-c3cc(C)ncc3C)c2)C2=C(CC(C)(C)CC2=O)Nc2n[nH]cc21 [Compound 943515]			1000 to 5000 nM	> 5000 nM	
CCC1(c2cccc(-c3ccnc(C)c3C)c2)C2=C(CC(C)(C)CC2=O)Nc2n[nH]cc21 (stereo not shown) [Compound 943516]			≤ 100 nM	≤ 100 nM	IC50 [1, 7]: ≤ 100 nM; IC50 [2, 8]: 1000 to 5000 nM
CCC1(c2cccc(-c3ccnc(C)c3C)c2)C2=C(CC(C)(C)CC2=O)Nc2n[nH]cc21 (stereo not shown) [Compound 943517]			100 to 1000 nM	> 5000 nM	
CCC1(c2cccc(-c3ccncc3F)c2)C2=C(CC(C)(C)CC2=O)Nc2n[nH]cc21 (stereo not shown) [Compound 943518]			≤ 100 nM	≤ 100 nM	IC50 [1, 7]: ≤ 100 nM; IC50 [2, 8]: 100 to 1000 nM
